Source: US20160193162A1 (TIANJIN TAIPU PHARMACEUTICAL SCIENCE & TECHNOLOGY …, priority 2013, published 2016)
Where two headings read alike, the source gives them in different places.

Columns and labels:
[1] = powder diffraction of sample tablets after acceleration; type: physicochemical; settings: sample tablets accelerated for two months
Source text: Chinese patent CN1101704763A recites a preparation method of the I-form crystals. […] Changes in crystal forms, on the one hand may result in infringement, and on the other hand may further lead to inconsistency in bioavailability of drugs. Therefore, it is very important to solve the problem of stability of crystal forms during the processes of the tablet manufacture and preservation.

[2] = solubility of crystalline I-form agomelatine in solvents; type: physicochemical
[3] = stability in the process: crystal form purity (DSC) and relevant substances (HPLC); type: physicochemical; settings: stage of the manufacturing process
Source text: Referring to the aforementioned test 6, tablets were manufactured according to formulation and process with hydroxyproplyl methyl cellulose and polyvinylpyrrolindone k30 in a concentration of 15% as a protective agent.
1) Stability in the process: crystal form purity of the tablets was detected using DSC method with crystal forms and relevant substances as evaluation indexes. Regarding detection of relevant substances, HPLC method was adopted using imported drug as a standard.

[4] = I-form crystal purity by DSC of raw material after pulverization, grinding, tabletting; type: physicochemical
Source text: Change of the crystalline I-form raw material in pulverization, grinding, and tabletting (at a pressure of 10 kg) was detected by DSC (see FIGS. 1-4).

[5] = test on influencing factors (high temperature, high humidity); type: physicochemical
Method: 2) Test on influencing factors: we investigated in combination with formulations of the present invention: the samples were allowed to stand in an open state for 30 days under the conditions of a high temperature of 60° C., a high humidity of RH 92%, and both high temperature and high humidity (40° C., RH75%), respectively.

[6] = test system: brain nerve cells of an adult rat; settings: cited from earlier work

## COc1ccc2cccc(CCNC(C)=O)c2c1 [agomelatine]
[1]
  crystal form by powder diffraction: almost completely converted to the II form
[2]; in DMSO
  solubility: very soluble
[2]; in acetonitrile
  solubility: very soluble
[2]; in ethanol
  solubility: very soluble
[2]; in methanol
  solubility: very soluble
[2]; in water
  solubility: almost insoluble
[3]; DSC
  Crystal form purity: 100
[3]; HPLC
  Relevant substances: 0.32%
[4]; after grinding
  I-form crystal purity (%) detected by DSC: 97.5%
[4]; after pulverization
  I-form crystal purity (%) detected by DSC: 90.0%
[4]; after tabletting at a pressure of 10 kg
  I-form crystal purity (%) detected by DSC: 74.3%
[4]; raw material, untreated
  I-form crystal purity (%) detected by DSC: 100%
[5]; 0 day
  Crystal form purity %: 100%
[5]; 10 days at a high humidity (RH 92%), open state
  Crystal form purity %: 80%
[5]; 10 days at a high temperature (60° C.), open state
  Crystal form purity %: 65%
[5]; 10 days at both high temperature and high humidity (40° C., RH75%), open state
  Crystal form purity %: 35%

## COc1ccc2cccc(CCNC(C)=O)c2c1 [Agomelatine, agomelatine]
[6]; acute or subacute administration (4 hours or nine weeks)
  cell proliferation and neuronal regeneration in hippocampal ventral dentate gyrus: no similar situation occurred
[6]; long-term (three weeks) administration
  cell proliferation and neuronal regeneration in hippocampal ventral dentate gyrus: increase cell proliferation and neuronal regeneration
